According to patent publication US9861102B2, “Methods for disinfection” (Markesbery Blue Pearl LLC, priority 2016, dated 2018):

Test system: Bacillus subtilis bacteria
Assay: Closed-system control experiments of peracid reactant compounds, percent kill
Type: cell-based
Settings: for Percent Kill: B. subtilis agar plates, electrostatic spray, 2-micron thickness, concentrations as in Example 2, charge as indicated
Text: The electrostatic spray device used was a Hurricane ES™ Portable Electrostatic Aerosol Applicator, modified to selectively impart either a positive, negative, or neutral charge when dispersing an aqueous composition containing a peracid reactant compound. In experiments where multiple aqueous compositions containing peracid reactant compounds were dispersed, the compositions were dispersed sequentially, and all aqueous compositions were dispersed with either a positive, negative, or neutral charge, as indicated below in Table 5. […] In all experiments, the percent by weight of distilled water was adjusted appropriately in response to the addition or deletion of a peracid reactant compound. […] Processing and handling of the agar plates containing the B. subtilis bacteria was conducted according to the procedure used in Example 3.

| SMILES | Percent Kill | effect on bacterial growth (ethanol on its own) |
| --- | --- | --- |
| OO [Exp 7, Hydrogen Peroxide] | 72% |  |
| CC(=O)O [Exp 8, Acetic Acid] | 6% |  |
| CCO [Exp 9, Ethanol] | 0% | no effect |
